From patent US11814391B2, “Macrocyclic compounds for the treatment of medical disorders” (Achillion Pharmaceuticals, Inc., priority 2018, dated 2023)

Target: Human Factor D (Homo sapiens (Human), UniProt P00746)
Experiment: Human Factor D assay
Type: biochemical
Details: not given
How it was run: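 Serum-purified human Factor D (80 nM final) preincubated 5 min at room temperature with compound in 50 mM Tris, 1M NaCl, pH 7.5. Reaction started with Z-L-Lys-SBzI and DTNB (100 μM each); A405 read every 30 s for 30 min. IC50 from nonlinear regression of reaction rates versus compound concentration.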

Human Factor D, sequence (P00746 26-253): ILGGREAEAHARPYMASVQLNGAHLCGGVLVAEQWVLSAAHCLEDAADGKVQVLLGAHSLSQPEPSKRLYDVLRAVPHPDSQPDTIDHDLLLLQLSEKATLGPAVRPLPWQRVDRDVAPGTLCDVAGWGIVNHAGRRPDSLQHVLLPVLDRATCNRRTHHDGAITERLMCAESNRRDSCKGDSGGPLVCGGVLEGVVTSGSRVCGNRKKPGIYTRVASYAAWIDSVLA

| Compound | IC50 [µM] |
| --- | --- |
| CC(=O)c1nn2c3c(cc(-c4cnc(C)nc4)cc13)CCCCCCCCCCN([C@@H](C)C(=O)Nc1nc(Br)ccc1C)C(=O)C2 [Compound 35, (S)-2-(2-acetyl-4-(2-methylpyrimidin-5-yl)-17-oxo-8,9,10,11,12,13,14,15,17,18-decahydro-6H-[1,4]diazacyclohexadecino[15,16,1-hi]indazol-16(7H)-yl)-N-(6-bromo-3-methylpyridin-2-yl)propanamide] | 1 to 10 |

Same assay, conditions: Human Factor D 80 nM, substrate Z-L-Lys-SBzl, A405; read-out: IC50 (Stars)

| Compound | IC50 [µM] |
| --- | --- |
| CC(=O)c1nn2c3c(cc(-c4cnc(C)nc4)cc13)CCCCCCCNC[C@@]13C[C@@H](C(=O)Nc4nc(C(F)(F)F)ccc4C)N(C(=O)C2)[C@@H]1C3 [Compound 32, (4^1R,4^3S,4^5R)-1^3-acetyl-N-(3-methyl-6-(trifluoromethyl)pyridin-2-yl)-1^5-(2-methylpyrimidin-5-yl)-3-oxo-1^1H-4^2,6-diaza-1(1,7)-indazola-4(2,5)-bicyclo[3.1.0]hexanacyclotridecaphane-4^3-carboxamide] | < 1 |
| CC(=O)c1nn2c3c(cc(-c4cnc(C)nc4)cc13)CNC(=O)CCCCOC[C@@]13C[C@@H](C(=O)Nc4nc(C(F)(F)F)ccc4C)N(C(=O)C2)[C@@H]1C3 [Compound 33, (4^1R,4^3S,4^5S)-1^3-acetyl-N-(3-methyl-6-(trifluoromethyl)pyridin-2-yl)-1^5-(2-methylpyrimidin-5-yl)-3,11-dioxo-1^1H-6-oxa-4^2,12-diaza-1(1,7)-indazola-4(2,5)-bicyclo[3.1.0]hexanacyclotridecaphane-4^3-carboxamide] | < 1 |
| CC(=O)c1nn2c3c(cc(-c4cnc(C)nc4)cc13)CCCC[C@@H](C)CC(=O)NC[C@@]13C[C@@H](C(=O)Nc4nc(C(F)(F)F)ccc4C)N(C(=O)C2)[C@@H]1C3 [Compound 34, (4^1R,4^3S,4^5R,9R)-1^3-acetyl-9-methyl-N-(3-methyl-6-(trifluoromethyl)pyridin-2-yl)-1^5-(2-methylpyrimidin-5-yl)-3,7-dioxo-1^1H-4^2,6-diaza-1(1,7)-indazola-4(2,5)-bicyclo[3.1.0]hexanacyclotridecaphane-4^3-carboxamide] | < 1 |
| CC(=O)c1nn2c3c(cc(-c4cnc(C)nc4)cc13)CNCCCCCOC[C@@]13C[C@@H](C(=O)Nc4nc(C(F)(F)F)ccc4C)N(C(=O)C2)[C@@H]1C3 [Compound 36, (4^1R,4^3S,4^5S)-1^3-acetyl-N-(3-methyl-6-(trifluoromethyl)pyridin-2-yl)-1^5-(2-methylpyrimidin-5-yl)-3-oxo-1^1H-6-oxa-4^2,12-diaza-1(1,7)-indazola-4(2,5)-bicyclo[3.1.0]hexanacyclotridecaphane-4^3-carboxamide] | < 1 |
| CC(=O)c1nn2c3c(cc(-c4cnc(C)nc4)cc13)CNCC/C=C/COC[C@@]13C[C@@H](C(=O)Nc4nc(C(F)(F)F)ccc4C)N(C(=O)C2)[C@@H]1C3 [Compound 37, (4^1R,4^3S,4^5S,E)-1^3-acetyl-N-(3-methyl-6-(trifluoromethyl)pyridin-2-yl)-1^5-(2-methylpyrimidin-5-yl)-3-oxo-1^1H-6-oxa-4^2,12-diaza-1(1,7)-indazola-4(2,5)-bicyclo[3.1.0]hexanacyclotridecaphan-8-ene-4^3-carboxamide] | < 1 |
| CC(=O)c1nn2c3c(cc(-c4cnc(C)nc4)cc13)CCCCCCCCCc1ccc(Br)nc1NC(=O)[C@H](C)N(C)C(=O)C2 [Compound 38, (S)-13-acetyl-3-bromo-7,8-dimethyl-15-(2-methylpyrimidin-5-yl)-5,7,8,17,18,19,20,21,22,23,24,25-dodecahydro-6H-pyrido[2′,3′:8,9][1,4,7]triazacycloicosino[19,20,1-hi]indazole-6,9(10H)-dione] | > 10 |
| CC(=O)c1nn2c3c(cc(NCC4CCCCC4)cc13)CCCCCCC(=O)NC[C@@]13C[C@@H](C(=O)Nc4nc(C(F)(F)F)ccc4C)N(C(=O)C2)[C@@H]1C3 [Compound 39, (4^1R,4^3S,4^5R)-1^3-acetyl-1^5-((cyclohexylmethyl)amino)-N-(3-methyl-6-(trifluoromethyl)pyridin-2-yl)-3,7-dioxo-1^1H-4^2,6-diaza-1(1,7)-indazola-4(2,5)-bicyclo[3.1.0]hexanacyclotridecaphane-4^3-carboxamide] | < 1 |
| CC(=O)c1nn2c3c(cc(-c4cnc(C)nc4)cc13)CCCCCCCCO[C@@H]1CCN(C(=O)C2)[C@@H]1C(=O)NCc1cccc(Cl)c1F [Compound 40, (4^2S,4^3R)-1^3-acetyl-N-(3-chloro-2-fluorobenzyl)-1^5-(2-methylpyrimidin-5-yl)-3-oxo-1^1H-5-oxa-1(1,7)-indazola-4(1,3)-pyrrolidinacyclotridecaphane-4^2-carboxamide] | < 1 |
| CC(=O)c1nn2c3c(nc(C)cc13)C/C=C/CCCCCC(=O)NCc1ccc(Br)nc1NC(=O)[C@@H]1C[C@@]3(C)C[C@H]3N1C(=O)C2 [Compound 45, (20aS,21aR,22aR,E)-26-acetyl-17-bromo-2,21a-dimethyl-8,9,10,11,13,14,20a,21,21a,22,22a,24-dodecahydro-3,13,18,19,22b,24a,25-heptaazabenzo[15,16]cyclopropa[3′,4′]cyclopenta[1′,2′:19, 20]cyclodocosa[1,2,3-cd]indene-12,20,23(4H,7H,19H)-trione] | < 1 |
| CC(=O)c1nn2c3c(cccc13)CC/C=C/CC(=O)NC[C@@]13C[C@@H](C(=O)Nc4nc(Br)ccc4C)N(C(=O)C2)[C@@H]1C3 [Compound 46, (41R,43S,45R,E)-13-acetyl-N-(6-bromo-3-methylpyridin-2-yl)-3,7-dioxo-11H-42,6-diaza-l(1,7)-indazola-4(2,5)-bicyclo[3.1.0]hexanacyclododecaphan-9-ene-43-carboxamide] | < 1 |
| CC(=O)c1nn2c3c(cccc13)CC/C=C/CCC(=O)NC[C@@]13C[C@@H](C(=O)Nc4nc(Br)ccc4C)N(C(=O)C2)[C@@H]1C3 [Compound 47, (41R,43S,45R,E)-13-acetyl-N-(6-bromo-3-methylpyridin-2-yl)-3,7-dioxo-11H-42,6-diaza-1(1,7)-indazola-4(2,5)-bicyclo[3.1.0]hexanacyclotridecaphan-10-ene-43-carboxamide] | < 1 |
| CC(=O)c1nn(CC(=O)N2[C@H]3C[C@]4(C[C@@H]24)Cn2cc(nn2)COCc2ccc(Br)nc2NC3=O)c2cnccc12 [Compound 48, (31R,33S,35R,Z)-32-(2-(3-acetyl-1H-pyrazolo[3,4-c]pyridin-1-yl)acetyl)-66-bromo-11H-8-oxa-32,5-diaza-6(2,3)-pyridina-1(1,4)-triazola-3(5,3)-bicyclo[3.1,0]hexanacyclononaphan-4-one] | < 1 |
| CC(=O)c1nn2c3c(cc(-c4cnc(C)nc4)cc13)CCCCCCCCc1ccc(Br)nc1NC(=O)[C@H](C)N(C)C(=O)C2 [Compound 51, (S)-2-acetyl-16-bromo-20,21-dimethyl-4-(2-methylpyrimidin-5-yl)-6,7,8,9,10,11,12,13,20,21 - decahydropyrido[2′,3′:8,9][1,4,7]triazacyclononadecino [18,19,1-hi]indazole-19,22(18H,23H)-dione] | > 10 |
| CC(=O)c1nn2c3c(cc(NCC4CCCCC4)cc13)CCCCCCC(=O)NCC13CC(C(=O)Nc4nc(C(F)(F)F)ccc4C)N(C(=O)C2)C1C3 [Compound 52, (41R,43S,45R)-13-acetyl-15-((cyclohexylmethyl)amino)-N-(3-methyl-6-(trifluoromethyl)pyridin-2-yl)-3,7-dioxo-11H-42,6-diaza-1(1,7)-indazola-4(2,5)-bicyclo[3.1.0]hexanacyclotridecaphane-43-carboxamide] | < 1 |
| CC(=O)c1nn2c3c(cc(-c4cnc(C)nc4)cc13)CCCCCCCCCCCO[C@@H]1CCN(C(=O)C2)[C@@H]1C(=O)NCc1cccc(Cl)c1F [Compound 54, (42S,43R)-13-acetyl-N-(3-chloro-2-fluorobenzyl)-15-(2-methylpyrimidin-5-yl)-3-oxo-11H-5-oxa-1(1,7)-indazola-4(1,3)-pyrrolidinacyclohexadecaphane-42-carboxamide] | < 1 |
| CC(=O)c1nn2c3c(cc(NC4CCCC4)cc13)CCCCCCC(=O)NCC13CC(C(=O)Nc4nc(C(F)(F)F)ccc4C)N(C(=O)C2)C1C3 [Compound 55, (41R,43S,45R)-13-acetyl-15-(cyclopentylamino)-N-(3-methyl-6-(trifluoromethyl)pyridin-2-yl)-3,7-dioxo-11H-42,6-diaza-1(1,7)-indazola-4(2,5)-bicyclo[3.1.0]hexanacyclotridecaphane-43-carboxamide] | < 1 |
| CC(=O)c1nn2c3c(cc(-c4cnc(C)nc4)cc13)CCCCCCCCCC[C@@H](C(=O)Nc1nc(Br)ccc1C)N(C)C(=O)C2 [Compound 56, (S)-2-acetyl-N-(6-bromo-3-methylpyridin-2-yl)-17-methyl-4-(2-methylpyrimidin-5-yl)-18-oxo-6,7,8,9,10,11,12,13,14,15,16,17,18,19-tetradecahydro-[1,4]diazacycloheptadecino[16,17,1-hi]indazole-16-carboxamide] | > 10 |
| CC(=O)c1nn2c3c(cc(NC(=O)C4CC4)cc13)CCCCCCC(=O)NCC13CC(C(=O)Nc4nc(C(F)(F)F)ccc4C)N(C(=O)C2)C1C3 [Compound 57, (41R,43S,45R)-13-acetyl-15-(cyclopropanecarboxamido)-N-(3-methyl-6-(trifluoromethyl)pyridin-2-yl)-3,7-dioxo-11H-42,6-diaza-1(1,7)-indazola-4(2,5)-bicyclo[3.1.0]hexanacyclotridecaphane-43-carboxamide] | < 1 |
| CC(=O)c1nn2c3c(cc(-c4cnc(C)nc4)cc13)NCCCCCC(=O)NCC13CC(C(=O)Nc4nc(C(F)(F)F)ccc4C)N(C(=O)C2)C1C3 [Compound 58, (41R,43S,45R)-13-acetyl-N-(3-methyl-6-(trifluoromethyl)pyridin-2-yl)-15-(2-methylpyrimidin-5-yl)-3,7-dioxo-11H-42,6,13-triaza-1(1,7)-indazola-4(2,5)-bicyclo[3.1.0]hexanacyclotridecaphane-43-carboxamide] | < 1 |
